Test results taken from ChEMBL document CHEMBL1201861, “Genomics of Drug Sensitity in Cancer screening data, Wellcome Trust Sanger Institute”.

How the values were obtained:
Assay in all cases: cells
BB49-HNC = assay type: functional, cell-based, Homo sapiens; conditions: Homo sapiens, BB49-HNC;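 further: cell viability assay read-out, reported as inhibition of BB49-HNC cell growth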
Description: SANGER: Inhibition of human BB49-HNC cell growth in a cell viability assay.

MHH-PREB-1 = assay type: functional, cell-based, Homo sapiens; conditions: Homo sapiens, MHH-PREB-1;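 further: cell viability assay measuring inhibition of proliferation of human MHH-PREB-1 cells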
Description: SANGER: Inhibition of human MHH-PREB-1 cell growth in a cell viability assay.

ACN = assay type: functional, cell-based, Homo sapiens; conditions: Homo sapiens, ACN;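 further: growth inhibition of the human ACN cell line, read out via cell viability testing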
Description: SANGER: Inhibition of human ACN cell growth in a cell viability assay.

KNS-81-FD = assay type: functional, cell-based, Homo sapiens; conditions: Homo sapiens, KNS-81-FD;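 further: growth inhibition of KNS-81-FD cells, read out with a cell viability assay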
Description: SANGER: Inhibition of human KNS-81-FD cell growth in a cell viability assay.

TE-5 = assay type: functional, cell-based, Homo sapiens; conditions: Homo sapiens, TE-5;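 further: inhibition of cell growth, read out by a cell viability assay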
Description: SANGER: Inhibition of human TE-5 cell growth in a cell viability assay.

HCE-T = assay type: functional, cell-based, Homo sapiens; conditions: Homo sapiens, HCE-T;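 further: cell viability assay read-out, reporting inhibition of HCE-T cell growth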
Description: SANGER: Inhibition of human HCE-T cell growth in a cell viability assay.

A101D = assay type: functional, cell-based, Homo sapiens; conditions: Homo sapiens, A101D;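 further: growth inhibition of the cell line, measured with a viability assay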
Description: SANGER: Inhibition of human A101D cell growth in a cell viability assay.

MS-1 = assay type: functional, cell-based, Homo sapiens; conditions: Homo sapiens, MS-1;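 further: growth inhibition of MS-1 cells, read out by cell viability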
Description: SANGER: Inhibition of human MS-1 cell growth in a cell viability assay.

TGBC1TKB = assay type: functional, cell-based, Homo sapiens; conditions: Homo sapiens, TGBC1TKB;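 further: growth inhibition of TGBC1TKB cells, read out by a cell viability assay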
Description: SANGER: Inhibition of human TGBC1TKB cell growth in a cell viability assay.

KARPAS-45 = assay type: functional, cell-based, Homo sapiens; conditions: Homo sapiens, KARPAS-45;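 further: inhibition of cell line growth, read out through a viability assay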
Description: SANGER: Inhibition of human KARPAS-45 cell growth in a cell viability assay.

LS-1034 = assay type: functional, cell-based, Homo sapiens; conditions: Homo sapiens, LS-1034
Description: SANGER: Inhibition of human LS-1034 cell growth in a cell viability assay.

P30-OHK = assay type: functional, cell-based, Homo sapiens; conditions: Homo sapiens, P30-OHK;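 further: growth inhibition of the P30-OHK cell line, read out with a cell viability assay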
Description: SANGER: Inhibition of human P30-OHK cell growth in a cell viability assay.

SJRH30 = assay type: functional, cell-based; conditions: Homo sapiens;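 further: growth inhibition of human SJRH30 cells, read out with a cell viability assay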
Description: SANGER: Inhibition of human SJRH30 cell growth in a cell viability assay.

NCI-H526 = assay type: functional, cell-based, Homo sapiens; conditions: Homo sapiens, NCI-H526;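 further: growth inhibition of the human NCI-H526 cell line, measured by a cell viability assay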
Description: SANGER: Inhibition of human NCI-H526 cell growth in a cell viability assay.

MFM-223 = assay type: functional, cell-based, Homo sapiens; conditions: Homo sapiens, MFM-223
Description: SANGER: Inhibition of human MFM-223 cell growth in a cell viability assay.

D-502MG = assay type: functional, cell-based, Homo sapiens; conditions: Homo sapiens, D-502MG
Description: SANGER: Inhibition of human D-502MG cell growth in a cell viability assay.

KM12 = assay type: functional, cell-based, Homo sapiens; conditions: Homo sapiens, KM12;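 further: KM12 cell growth inhibition, read out with a cell viability assay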
Description: SANGER: Inhibition of human KM12 cell growth in a cell viability assay.

EKVX = assay type: functional, cell-based, Homo sapiens; conditions: Homo sapiens, EKVX;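 further: growth inhibition of human EKVX cells, read out with a cell viability assay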
Description: SANGER: Inhibition of human EKVX cell growth in a cell viability assay.

LS-411N = assay type: functional, cell-based, Homo sapiens; conditions: Homo sapiens, LS-411N
Becker = assay type: functional, cell-based, Homo sapiens; conditions: Homo sapiens, Becker;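 further: growth inhibition of Becker cells, read out with a cell viability assay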
Description: SANGER: Inhibition of human Becker cell growth in a cell viability assay.

IA-LM = assay type: functional, cell-based; conditions: Homo sapiens;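 further: cell viability assay measuring growth inhibition of human IA-LM cells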
Description: SANGER: Inhibition of human IA-LM cell growth in a cell viability assay.

Calu-6 = assay type: functional, cell-based, Homo sapiens; conditions: Homo sapiens, Calu-6;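 further: growth of human Calu-6 cells, read out by a cell viability assay, IC50 marking inhibition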
Description: SANGER: Inhibition of human Calu-6 cell growth in a cell viability assay.

UACC-62 = assay type: functional, cell-based; conditions: Homo sapiens;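 further: growth inhibition of human UACC-62 cells, read out by a cell viability assay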
Description: SANGER: Inhibition of human UACC-62 cell growth in a cell viability assay.

ETK-1 = assay type: functional, cell-based, Homo sapiens; conditions: Homo sapiens, ETK-1;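 further: growth inhibition of human ETK-1 cells, read out with a cell viability assay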
Description: SANGER: Inhibition of human ETK-1 cell growth in a cell viability assay.

EW-18 = assay type: functional, cell-based, Homo sapiens; conditions: Homo sapiens, EW-18; read-out: IC50;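 further: growth inhibition of EW-18 cells, read out by a cell viability assay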
Description: SANGER: Inhibition of human EW-18 cell growth in a cell viability assay.

AM-38 = assay type: functional, cell-based, Homo sapiens; conditions: Homo sapiens, AM-38;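 further: growth inhibition of AM-38 cells of human origin, read out by a cell viability assay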
Description: SANGER: Inhibition of human AM-38 cell growth in a cell viability assay.

NCI-H446 = assay type: functional, cell-based, Homo sapiens; conditions: Homo sapiens, NCI-H446;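 further: growth inhibition of NCI-H446 cells determined by a cell viability assay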
Description: SANGER: Inhibition of human NCI-H446 cell growth in a cell viability assay.

RXF 393 = assay type: functional, cell-based, Homo sapiens; conditions: Homo sapiens, RXF 393;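 further: growth inhibition of human RXF 393 cells, read out with a cell viability assay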
Description: SANGER: Inhibition of human RXF393 cell growth in a cell viability assay.

RERF-LC-MS = assay type: functional, cell-based; conditions: Homo sapiens;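 further: growth inhibition of human RERF-LC-MS cells, read out by a cell viability assay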
Description: SANGER: Inhibition of human RERF-LC-MS cell growth in a cell viability assay.

MLMA = assay type: functional, cell-based, Homo sapiens; conditions: Homo sapiens, MLMA;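 further: growth inhibition of MLMA cells (human), determined through a cell viability readout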
Description: SANGER: Inhibition of human MLMA cell growth in a cell viability assay.

GR-ST = assay type: functional, cell-based, Homo sapiens; conditions: Homo sapiens, GR-ST
Description: SANGER: Inhibition of human GR-ST cell growth in a cell viability assay.

EW-11 = assay type: functional, cell-based, Homo sapiens; conditions: Homo sapiens, EW-11;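 further: growth inhibition of human EW-11 cells, measured with a cell viability assay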
Description: SANGER: Inhibition of human EW-11 cell growth in a cell viability assay.

KY821 = assay type: functional, cell-based, Homo sapiens; conditions: Homo sapiens, KY821;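 further: growth inhibition of human KY821 cells, read out by a cell viability assay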
Description: SANGER: Inhibition of human KY821 cell growth in a cell viability assay.

SK-N-DZ = assay type: functional, cell-based, Homo sapiens; conditions: Homo sapiens, SK-N-DZ; read-out: IC50;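 further: growth inhibition of the cancer cell line, read out through a viability assay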
Description: SANGER: Inhibition of human SK-N-DZ cell growth in a cell viability assay.

MPP-89 = assay type: functional, cell-based, Homo sapiens; conditions: Homo sapiens, MPP-89;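 further: growth inhibition of human MPP-89 cells, read out with a cell viability assay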
Description: SANGER: Inhibition of human MPP-89 cell growth in a cell viability assay.

NCI-H1304 = assay type: functional, cell-based, Homo sapiens; conditions: Homo sapiens, NCI-H1304;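 further: growth inhibition of the cancer cell line, measured in a cell viability assay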
Description: SANGER: Inhibition of human NCI-H1304 cell growth in a cell viability assay.

COLO-668 = assay type: functional, cell-based, Homo sapiens; conditions: Homo sapiens, COLO-668
Description: SANGER: Inhibition of human COLO-668 cell growth in a cell viability assay.

D-247MG = assay type: functional, cell-based; conditions: Homo sapiens
Description: SANGER: Inhibition of human D-247MG cell growth in a cell viability assay.

SNB-75 = assay type: functional, cell-based, Homo sapiens; conditions: Homo sapiens, SNB-75;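 further: cell viability assay measuring growth inhibition of human SNB-75 cells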
Description: SANGER: Inhibition of human SNB75 cell growth in a cell viability assay.

A4-Fuk = assay type: functional, cell-based, Homo sapiens; conditions: Homo sapiens, A4-Fuk;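 further: growth inhibition of A4-Fuk cells, read out by a cell viability assay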
Description: SANGER: Inhibition of human A4-Fuk cell growth in a cell viability assay.

CTV-1 = assay type: functional, cell-based, Homo sapiens; conditions: Homo sapiens, CTV-1;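 further: growth inhibition of the cell line, read out with a cell viability assay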
Description: SANGER: Inhibition of human CTV-1 cell growth in a cell viability assay.

COR-L88 = assay type: functional, cell-based, Homo sapiens; conditions: Homo sapiens, COR-L88;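 further: growth inhibition of COR-L88 cells, read out with a cell viability assay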
Description: SANGER: Inhibition of human COR-L88 cell growth in a cell viability assay.

SF-268 = assay type: functional, cell-based, Homo sapiens; conditions: Homo sapiens, SF-268;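 further: growth inhibition of SF-268 cells determined with a cell viability assay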
Description: SANGER: Inhibition of human SF268 cell growth in a cell viability assay.

LB1047-RCC = assay type: functional, cell-based, Homo sapiens; conditions: Homo sapiens, LB1047-RCC;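 further: inhibition of cell growth, determined with a cell viability assay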
Description: SANGER: Inhibition of human LB1047-RCC cell growth in a cell viability assay.

LB831-BLC = assay type: functional, cell-based, Homo sapiens; conditions: Homo sapiens, LB831-BLC;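 further: growth inhibition of LB831-BLC cells, read out with a cell viability assay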
Description: SANGER: Inhibition of human LB831-BLC cell growth in a cell viability assay.

COLO-824 = assay type: functional, cell-based, Homo sapiens; conditions: Homo sapiens, COLO-824
Description: SANGER: Inhibition of human COLO-824 cell growth in a cell viability assay.

D283 Med = assay type: functional, cell-based, Homo sapiens; conditions: Homo sapiens, D283 Med
Description: SANGER: Inhibition of human D-283MED cell growth in a cell viability assay.

VA-ES-BJ = assay type: functional, cell-based, Homo sapiens; conditions: Homo sapiens, VA-ES-BJ;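 further: growth inhibition of the VA-ES-BJ cell line, read out by a cell viability assay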
Description: SANGER: Inhibition of human VA-ES-BJ cell growth in a cell viability assay.

NCI-H1770 = assay type: functional, cell-based, Homo sapiens; conditions: Homo sapiens, NCI-H1770;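 further: growth inhibition of NCI-H1770 cells determined with a viability readout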
Description: SANGER: Inhibition of human NCI-H1770 cell growth in a cell viability assay.

TE-6 = assay type: functional, cell-based, Homo sapiens; conditions: Homo sapiens, TE-6;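 further: growth inhibition of TE-6 cells, read out with a cell viability assay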
Description: SANGER: Inhibition of human TE-6 cell growth in a cell viability assay.

SMILES: CN(C)CCOc1ccc(-c2nc(-c3ccncc3)c(-c3ccc4c(c3)CC/C4=N\O)[nH]2)cc1 [SB590885]
- IC50 (BB49-HNC): > 5 µM
- IC50 (MHH-PREB-1): > 5 µM
- IC50 (ACN): 1.15 µM
- IC50 (KNS-81-FD): > 5 µM
- IC50 (TE-5): > 5 µM
- IC50 (HCE-T): > 5 µM
- IC50 (A101D): 0.5 µM
- IC50 (MS-1): > 5 µM
- IC50 (TGBC1TKB): > 5 µM
- IC50 (KARPAS-45): 3.92 µM
- IC50 (LS-1034): > 5 µM
- IC50 (P30-OHK): > 5 µM
- IC50 (SJRH30): > 5 µM
- IC50 (NCI-H526): > 5 µM
- IC50 (MFM-223): > 5 µM
- IC50 (D-502MG): > 5 µM
- IC50 (KM12): > 5 µM
- IC50 (EKVX): > 5 µM
- IC50 (LS-411N): > 5 µM
- IC50 (Becker): > 5 µM
- IC50 (IA-LM): > 5 µM
- IC50 (Calu-6): > 5 µM
- IC50 (UACC-62): > 5 µM
- IC50 (ETK-1): > 5 µM
- IC50 (EW-18): > 5 µM
- IC50 (AM-38): > 5 µM
- IC50 (NCI-H446): > 5 µM
- IC50 (RXF 393): > 5 µM
- IC50 (RERF-LC-MS): > 5 µM
- IC50 (MLMA): > 5 µM
- IC50 (GR-ST): > 5 µM
- IC50 (EW-11): > 5 µM
- IC50 (KY821): > 5 µM
- IC50 (SK-N-DZ): > 5 µM
- IC50 (MPP-89): > 5 µM
- IC50 (NCI-H1304): > 5 µM
- IC50 (COLO-668): > 5 µM
- IC50 (D-247MG): > 5 µM
- IC50 (SNB-75): > 5 µM
- IC50 (A4-Fuk): > 5 µM
- IC50 (CTV-1): > 5 µM
- IC50 (COR-L88): > 5 µM
- IC50 (SF-268): > 5 µM
- IC50 (LB1047-RCC): > 5 µM
- IC50 (LB831-BLC): > 5 µM
- IC50 (COLO-824): > 5 µM
- IC50 (D283 Med): > 5 µM
- IC50 (VA-ES-BJ): > 5 µM
- IC50 (NCI-H1770): > 5 µM
- IC50 (TE-6): > 5 µM

SMILES: Cc1ccc(-n2nc(C(C)(C)C)cc2NC(=O)Nc2ccc(OCCN3CCOCC3)c3ccccc23)cc1 [DORAMAPIMOD]
- IC50 (BB49-HNC): > 10 µM
- IC50 (MHH-PREB-1): > 10 µM
- IC50 (ACN): > 10 µM
- IC50 (KNS-81-FD): > 10 µM
- IC50 (TE-5): > 10 µM
- IC50 (HCE-T): > 10 µM
- IC50 (A101D): > 10 µM
- IC50 (MS-1): > 10 µM
- IC50 (TGBC1TKB): > 10 µM
- IC50 (KARPAS-45): > 10 µM
- IC50 (LS-1034): > 10 µM
- IC50 (P30-OHK): > 10 µM
- IC50 (SJRH30): > 10 µM
- IC50 (NCI-H526): > 10 µM
- IC50 (MFM-223): > 10 µM
- IC50 (D-502MG): > 10 µM
- IC50 (KM12): > 10 µM
- IC50 (EKVX): > 10 µM
- IC50 (LS-411N): > 10 µM
- IC50 (Becker): > 10 µM
- IC50 (IA-LM): > 10 µM
- IC50 (Calu-6): > 10 µM
- IC50 (UACC-62): > 10 µM
- IC50 (ETK-1): > 10 µM
- IC50 (EW-18): > 10 µM
- IC50 (AM-38): > 10 µM
- IC50 (NCI-H446): > 10 µM
- IC50 (RXF 393): > 10 µM
- IC50 (RERF-LC-MS): > 10 µM
- IC50 (MLMA): > 10 µM
- IC50 (GR-ST): > 10 µM
- IC50 (EW-11): > 10 µM
- IC50 (KY821): > 10 µM
- IC50 (SK-N-DZ): > 10 µM
- IC50 (MPP-89): 8.46 µM
- IC50 (NCI-H1304): > 10 µM
- IC50 (COLO-668): > 10 µM
- IC50 (D-247MG): > 10 µM
- IC50 (SNB-75): > 10 µM
- IC50 (A4-Fuk): > 10 µM
- IC50 (CTV-1): > 10 µM
- IC50 (COR-L88): > 10 µM
- IC50 (SF-268): > 10 µM
- IC50 (LB1047-RCC): > 10 µM
- IC50 (LB831-BLC): > 10 µM
- IC50 (COLO-824): > 10 µM
- IC50 (D283 Med): > 10 µM
- IC50 (VA-ES-BJ): > 10 µM
- IC50 (NCI-H1770): > 10 µM
- IC50 (TE-6): > 10 µM
